Data reported in patent US4906794A, “Lysosome liberation inhibitors and histamine release inhibitors” (Mitsubishi Kasei Corporation, priority 1986, dated 1990).

Assays:
[1] = test system: carrageenin-induced rat paw edema; experiment: rat carrageenin edema test (carrageenin-induced rat paw edema); assay type: in vivo, Wistar male rat; settings: 6 rats; for % Inhibition (edema), 2 Hours: 2 hours after carrageenin; for % Inhibition (edema), 3 Hours: 3 hours after carrageenin
Method: When […] of 1% (W/V) λ-carrageenin is subcutaneously injected into the left paw of a Wistar male rat of 120 to 150 g, edema is developed in the left paw with a severity peak at 3 to 4 hours after injection--rat carrageenin edema test. It has been known that this carrageenin-induced rat paw edema is an excellent experimental model for inflammation, where histamine is involved in the development of edema immediately after injection of carrageenin, and subsequently such chemical mediators as prostaglandins, leukotrienes, bradykinin and the like are also involved.
The effect of sarcophytol-A on edema was investigated employing this experimental model: sarcophytol-A was orally administered to rats one hour before injection of carrageenin and the volume of the thus induced edema in the rat paw was measured by a volumometer 2 or 3 hours after the injection of carrageenin.
Degrees of edematization are expressed in percentages of paw volume increases after induction with respect to the paw volumes before induction: namely,
% Edematization=(B-A)/A×100
wherein A is the paw volume before induction, and B after induction. Further, inhibiting rates (%) are calculated according to the following equation: […]

[2] = test system: polymorphonuclear leukocytes; experiment: liberation of lysosomal enzymes (β-glucuronidase) from FMLP-stimulated polymorphonuclear leukocytes; assay type: cell-based, male Wistar rat; settings: for Liberation (%) of lysosomal enzymes: control (0.1% DMSO) 32.0
Method: When 20 ml of 1% casein is intraperitoneally injected to a rat, a large number of polymorphonuclear leukocytes appear in the peritoneal cavity in 5 hours after the injection. Using these polymorphonuclear leukocytes, it is possible to measure the activity of polymorphonuclear leukocytes in an in vitro system. Thus, polymorphonuclear leukocytes are added into a test tube together with a buffer, and cytochalasin B is then added. Five minutes later, a stimulant formyl-methionyl-leucyl-phenylalanine (FMLP) is added. Then, the polymorphonuclear leukocytes liberate lysosomal enzymes. Simultaneously, some active enzymes and leukotrienes are produced. See Wei Hsueh et al., Nature, 290(23), 710-713 (11981).
Thus, polymorphonuclear leukocytes (2×10^6) were collected from the peritoneal cavity of a male Wistar rat of 250 to 350 g in body weight which had been stimulated with casein, and incubated in Hepes buffer (pH 7.4) for 5 minutes. After 5 μg of cytochalasin B was added, the mixture was incubated for an additional one minute. To the mixture, there was added an amount of a drug to be tested and, after incubation for 5 minutes, FMLP (0.1 μM) as a stimulant was added. Five minutes later, 2 volumes of ice-cooled phosphate buffer was added to arrest the reaction. The cells were removed by centrifugation at 1,100 rpm for 5 minutes. The supernatant was assayed for β-glucuronidase activity as an index of lysosomal enzymes. Separately, the total β-glucuronidase activity contained in the polymorphonuclear leukocyte was measured. Thus, liberation rates of lysosomal enzymes were determined as percentages of […]. Inhibition rates were calculated in percentage according to the following equation:
% Inhibition=(1-T/C) ×100
wherein T and C represent the liberation rates (%) of lysosomes for the treated and control groups, respectively.

[3] = test system: mast cells; experiment: release of histamine from mast cells stimulated with compound 48/80; assay type: cell-based, male Wistar rat; settings: for Histamine Release: control (0.1% DMSO) 62.42
Method: Such histamine release can also be caused by addition of a synthetic stimulant compound 48/80, ATP (adenosine triphosphate), to mast cells.
Thus, mast cells were collected from the peritoneal cavity of a male Wistar rat of 400 to 450 g in body weight according to conventional procedures. The mast cells (5×10^4) were incubated in Krebs-Ringer buffer (pH 7.4) containing an amount of sarcophytol-A for 10 minutes. The compound 48/80 (100 ng) was added as a stimulant. After incubation for further 10 minutes, cells were removed by centrifugation. Histamine in the supernatant was quantitatively measured according to Shore et al. method: J. Phar. Exp. Ther., 127, 182-186 (1959). Total histamine contained in the mast cells was also measured. Inhibition rates (%) are calculated according to the following equation: […]
wherein T and C represent the amount of histamine released from mast cells after the treatment with the drug, and the total amount contained in the mast cells, respectively.

[4] = test system: mast cells; experiment: release of histamine from mast cells stimulated with protein extracted from the cuticle of ascarids (IgE antigen); assay type: cell-based, rat; settings: preincubated before addition of protein extracted from the cuticle of ascarids
[5] = test system: mast cells; settings: inhibitor of histamine release; cited from earlier work
[6] = 33 mg/kg oral, 1 h before carrageenin

Compound: COc1ccc2c(c1)c(CC(=O)O)c(C)n2C(=O)c1ccc(Cl)cc1 [Indomethacin, reference compound]
- % Inhibition (edema), 2 Hours ([1]; 10 mg/kg oral, **p<0.01 vs control): 43.5 ± 3.5%
- % Inhibition (edema), 3 Hours ([1]; 10 mg/kg oral, ***p<0.001 vs control): 43.7 ± 3.0%

Compound: C/C1=C\C=C(\C(C)C)[C@@H](O)C/C(C)=C/CC/C(C)=C/CC1 [Sarcophytol-A]
- % Inhibition (edema), 2 Hours [1, 6]: -3.0 ± 6.5%
- % Inhibition (edema), 3 Hours [1, 6]: 2.4 ± 8.6%
- % Inhibition (edema), 2 Hours ([1]; 100 mg/kg oral, 1 h before carrageenin): 24.4 ± 7.8%
- % Inhibition (edema), 3 Hours ([1]; 100 mg/kg oral, 1 h before carrageenin, **p<0.01 vs control): 26.9 ± 6.9%
- Liberation (%) of lysosomal enzymes ([2]; 4 μM, FMLP 0.1 μM): 29.4%
- Liberation (%) of lysosomal enzymes ([2]; 11 μM, FMLP 0.1 μM): 27.2%
- Liberation (%) of lysosomal enzymes ([2]; 33 μM, FMLP 0.1 μM): 26.0%
- Liberation (%) of lysosomal enzymes ([2]; 100 μM, FMLP 0.1 μM): 13.1%
- inhibition at 4 µM ([2]; Rattus norvegicus, Leukocyte, 4 μM, FMLP 0.1 μM, read-out: Inhibition (%) of lysosome liberation): 8.1%
- inhibition at 11 µM ([2]; Rattus norvegicus, Leukocyte, 11 μM, FMLP 0.1 μM, read-out: Inhibition (%) of lysosome liberation): 15.1%
- inhibition at 33 µM ([2]; Rattus norvegicus, Leukocyte, 33 μM, FMLP 0.1 μM, read-out: Inhibition (%) of lysosome liberation): 18.8%
- inhibition at 100 µM ([2]; Rattus norvegicus, Leukocyte, 100 μM, FMLP 0.1 μM, read-out: Inhibition (%) of lysosome liberation): 59%
- liberation of lysosomal enzymes (in words) ([2]; preincubated before addition of the stimulant FMLP): positively inhibited
- Histamine Release ([3]; 4 μM, compound 48/80 100 ng): 65.32 Fluorescence Intensity
- Histamine Release ([3]; 11 μM, compound 48/80 100 ng): 59.72 Fluorescence Intensity
- Histamine Release ([3]; 33 μM, compound 48/80 100 ng): 55.72 Fluorescence Intensity
- Histamine Release ([3]; 100 μM, compound 48/80 100 ng): 41.45 Fluorescence Intensity
- inhibition at 4 µM ([3]; Rattus norvegicus, Mast cell, 4 μM, compound 48/80 100 ng): -4.6%
- inhibition at 11 µM ([3]; Rattus norvegicus, Mast cell, 11 μM, compound 48/80 100 ng): 4.3%
- inhibition at 33 µM ([3]; Rattus norvegicus, Mast cell, 33 μM, compound 48/80 100 ng): 10.7%
- inhibition at 100 µM ([3]; Rattus norvegicus, Mast cell, 100 μM, compound 48/80 100 ng): 33.6%
- release of histamine (in words) ([3]; preincubated before addition of stimulant compound 48/80): positively inhibited
- release of histamine (in words) [4]: positively inhibited

Compound: O=C(O)c1cc(=O)c2c(OCC(O)COc3cccc4oc(C(=O)O)cc(=O)c34)cccc2o1 [cromoglycate]
- degranulation of mast cells (in words) [5]: inhibits degranulation of mast cells
